Target: T1, human topoisomerase II α (Homo sapiens, UniProt P11388)
T1 construct: purchased Professor Neil Osheroff (Vanderbilt University, Nashville, Tenn., USA)
Assay: Topoisomerase II ATPase assay (Malachite Green)
Type: biochemical
Settings: for inhibition at 10 µM: Percent inhibition @10 μM, Malachite Green assay, read-out: TOPO II inh. (inhibition of the TOPO ATPase activity)
Procedure: The inhibition of topoisomerase II is measured as follows:
Purified human topoisomerase II α was purchased from Professor Neil Osheroff (Vanderbilt University—Nashville, Tenn., USA).
The pUC18 (Stratagene) plasmid was introduced into Escherichia coil XL-1 (Stratagene) and purified with the HiSpeed Plasmid Purification kit (Qiagen) according to the manufacturer instructions. The purity of the DNA preparations was evaluated spectrophotometrically (OD260/OD280 ratio) and by agarose gel.
Preparation of the Malachite Green Reagent:
Three volumes of 0.045% malachite green (Sigma, catalog no. M-9636) diluted in water are mixed for 20 min at room temperature with one volume of 4.2% ammonium molybdate (Axon Lab AG, catalog no. A-2246) diluted in 4 N HCl. After mixing, Triton X-100 (Merck, catalog no. 1.12298) is added to a final concentration of 0.01%. The solution is filtered at 0.2 μm and stored at room temperature in the dark.
ATP hydrolysis was monitored by measuring the production of inorganic phosphate released during the catalytic cycle of topoisomerase II α with acidic molybdate and malachite green (Lanzetta,et al., An improved assay for nanomole amounts of inorganic phosphate, Anal Biochem 1979;100:95-7). Briefly, human topoisomerase II α is pre-incubated at 37° C. for 10 min in 90 μl reaction buffer (10 mM Tris.HCl pH 7.9, 175 mM KCl, 1 mM EDTA, 2 mM DTT, 5 mM MgCl2, 2.5% glycerol) in the presence of the indicated amount of pUC18 and DMSO in F96 maxisorp Nunclmmuno plates (Nunc). The reaction is initiated by the addition of 10 μl ATP at the indicated concentrations and is carried out for 30 min at 37° C. under constant agitation. The reaction is stopped by the addition of 200 μl molybdate/malachite green solution and the absorbance is immediately measured at 630 nm. The OD630 value is measured in the absence of protein for each ATP concentration (background) is subtracted from the value obtained in the presence of enzyme. A standard curve with inorganic phosphate is used to determine the amount of inorganic phosphate produced during the reaction and to ensure that the measures are in the linear range of the assay. The kinetic parameters of the enzymes are determined from measurements (at least in duplicate) of the initial rates at different ATP concentrations. The data are analyzed with GraFit (Erithacus Software).
The compounds are tested at 10 μM of concentration to determine their inhibition potential given % of inhibition of the TOPO II ATPase activity.
For the determination of the IC50, the procedure is repeated for different concentrations of test compound selected to cover the range of 0% to 100% inhibition and the concentration at which 50% inhibition of topoisomerase II occurs (IC50) for each compound is determined from concentration-inhibition curves in a conventional manner.

T1 sequence (P11388 whole entry): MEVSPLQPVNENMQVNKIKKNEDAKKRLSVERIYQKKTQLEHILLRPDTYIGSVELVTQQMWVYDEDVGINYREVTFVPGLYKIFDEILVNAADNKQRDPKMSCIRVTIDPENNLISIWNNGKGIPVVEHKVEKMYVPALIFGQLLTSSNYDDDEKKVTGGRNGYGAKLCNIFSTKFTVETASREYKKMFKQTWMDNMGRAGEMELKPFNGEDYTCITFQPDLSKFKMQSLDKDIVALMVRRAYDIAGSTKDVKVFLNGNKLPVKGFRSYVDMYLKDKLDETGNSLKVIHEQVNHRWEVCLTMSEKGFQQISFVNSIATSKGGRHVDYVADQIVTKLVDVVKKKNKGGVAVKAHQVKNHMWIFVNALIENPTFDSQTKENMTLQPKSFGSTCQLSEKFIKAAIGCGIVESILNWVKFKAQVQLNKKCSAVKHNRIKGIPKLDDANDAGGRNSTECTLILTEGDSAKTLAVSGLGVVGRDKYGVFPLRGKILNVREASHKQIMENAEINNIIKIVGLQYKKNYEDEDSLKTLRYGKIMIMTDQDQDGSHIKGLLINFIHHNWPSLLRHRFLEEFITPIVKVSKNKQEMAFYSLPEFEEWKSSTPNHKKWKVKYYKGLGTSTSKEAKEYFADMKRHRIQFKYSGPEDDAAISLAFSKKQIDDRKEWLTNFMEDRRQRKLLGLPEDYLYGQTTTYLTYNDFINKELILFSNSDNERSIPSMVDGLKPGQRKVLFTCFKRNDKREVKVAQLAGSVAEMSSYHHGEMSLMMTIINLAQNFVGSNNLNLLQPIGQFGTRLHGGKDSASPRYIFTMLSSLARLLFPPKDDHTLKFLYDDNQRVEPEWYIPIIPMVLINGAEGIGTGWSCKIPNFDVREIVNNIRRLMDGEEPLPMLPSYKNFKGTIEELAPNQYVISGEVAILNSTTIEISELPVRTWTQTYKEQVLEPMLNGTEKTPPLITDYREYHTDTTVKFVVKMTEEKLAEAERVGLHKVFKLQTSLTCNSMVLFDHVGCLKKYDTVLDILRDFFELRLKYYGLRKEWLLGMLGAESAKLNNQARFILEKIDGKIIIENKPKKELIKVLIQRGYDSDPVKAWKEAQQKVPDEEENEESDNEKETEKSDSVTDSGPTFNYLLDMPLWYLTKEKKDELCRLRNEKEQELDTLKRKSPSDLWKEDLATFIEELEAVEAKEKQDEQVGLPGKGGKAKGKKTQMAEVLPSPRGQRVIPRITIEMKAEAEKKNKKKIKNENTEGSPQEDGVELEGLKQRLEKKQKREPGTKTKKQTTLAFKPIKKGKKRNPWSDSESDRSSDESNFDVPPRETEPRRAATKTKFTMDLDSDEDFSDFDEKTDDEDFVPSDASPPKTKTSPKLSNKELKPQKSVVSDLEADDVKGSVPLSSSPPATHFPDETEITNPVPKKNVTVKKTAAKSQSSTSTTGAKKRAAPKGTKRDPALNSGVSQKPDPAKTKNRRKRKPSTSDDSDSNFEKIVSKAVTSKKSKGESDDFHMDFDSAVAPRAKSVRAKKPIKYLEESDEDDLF

Row | Compound | IC50 | inhibition at 10 µM
1 | CC(C)(C)Nc1nc(Nc2ccc3cc(OCCN4CCOCC4)ccc3c2)nc2[nH]cnc12 [Example 22, N*6*-tert-Butyl-N*2*-[6-(2-morpholin-4-yl-ethoxy)-naphthalen-2-yl]-9H-purine-2,6-diamine] | 1800 nM | ≥ 80%
2 | Cc1cc2cc(Nc3nc(NC(C)(C)C)c4nc[nH]c4n3)ccc2[nH]1 [Example 23, N*6*-tert-Butyl-N*2*-(2-methyl-1H-indol-5-yl)-9H-purine-2,6-diamine] | – | < 50%
3 | CC(C)(C)Nc1nc(Nc2ccc3[nH]ccc3c2)nc2[nH]cnc12 [Example 24, N*6*-tert-Butyl-N*2*-(1H-indol-5-yl)-9H-purine-2,6-diamine] | – | < 50%
4 | Cc1nc2c(NC3CCCCCC3)nc(Nc3ccc4ncsc4c3)nc2[nH]1 [Example 26, N*2*-Benzothiazol-6-yl-N*6*-cycloheptyl-8-methyl-9H-purine-2,6-diamine] | – | < 50%
5 | CCc1nc2c(NC(C)C(F)(F)F)nc(Nc3ccc4ncsc4c3)nc2[nH]1 (stereo not shown) [Example 28, N*2*-Benzothiazol-6-yl-8-ethyl-N*6*-(2,2,2-trifluoro-1-methyl-ethyl)-9H-purine-2,6-diamine] | – | 50 to 65%
6 | CCc1nc2c(N3CCCC3C)nc(Nc3ccc4ncsc4c3)nc2[nH]1 (stereo not shown) [Example 29, Benzothiazol-6-yl-[8-ethyl-6-(2-methyl-pyrrolidin-1-yl)-9H-purin-2-yl]-amine] | – | < 50%
7 | CCc1nc2c(NC(C)CC(N)=O)nc(Nc3ccc4ncsc4c3)nc2[nH]1 (stereo not shown) [Example 30, 3-[2-(Benzothiazol-6-ylamino)-8-ethyl-9H-purin-6-ylamino]-butyramide] | – | 0%
8 | CCOC(=O)CC(C)Nc1nc(Nc2ccc3ncsc3c2)nc2[nH]c(CC)nc12 (stereo not shown) [Example 31, 3-[2-(Benzothiazol-6-ylamino)-8-ethyl-9H-purin-6-ylamino]-butyric acid ethyl ester] | – | < 50%
9 | CCCc1nc2c(NC(C)(C)C)nc(Nc3ccc4ncsc4c3)nc2[nH]1 [Example 32, N*2*-Benzothiazol-6-yl-N*6*-tert-butyl-8-propyl-9H-purine-2,6-diamine] | – | < 50%
10 | CC(C)c1nc2c(NC(C)(C)C)nc(Nc3ccc4ncsc4c3)nc2[nH]1 [Example 33, N*2*-Benzothiazol-6-yl-N*6*-tert-butyl-8-isopropyl-9H-purine-2,6-diamine] | – | < 50%
11 | CC(C)(C)Nc1nc(Nc2ccc3ncsc3c2)nc2[nH]c(C3CCCC3)nc12 [Example 34, N*2*-Benzothiazol-6-yl-N*6*-tert-butyl-8-cyclopentyl-9H-purine-2,6-diamine] | – | < 50%
12 | CCc1nc2c(NC(C)(C)C)nc(Nc3ccc4oc(=O)ccc4c3)nc2[nH]1 [Example 35, 6-(6-tert-Butylamino-8-ethyl-9H-purin-2-ylamino)-chromen-2-one] | 2800 nM | 65 to 80%
13 | CCc1nc2c(NC(C)(C)C)nc(Nc3ccc4nc(SC)sc4c3)nc2[nH]1 [Example 36, N*6*-tert-Butyl-8-ethyl-N*2*-(2-methylsulfanyl-benzothiazol-6-yl)-9H-purine-2,6-diamine] | 900 nM | ≥ 80%
14 | CCc1nc2c(NC(C)(C)C)nc(Nc3ccc4nc(OCCN5CCOCC5)sc4c3)nc2[nH]1 [Example 37, N*6*-tert-Butyl-8-ethyl-N*2*-[2-(2-morpholin-4-yl-ethoxy)-benzothiazol-6-yl]-9H-purine-2,6-diamine] | – | ≥ 80%
15 | C=C(C=Cc1nc(OCCN2CCOCC2)sc1C)Nc1nc(NC(C)(C)C)c2nc(C(C)C)[nH]c2n1 [Example 38, N*6*-tert-Butyl-8-isopropyl-N*2*-{1-methylene-3-[5-methyl-2-(2-morpholin-4-yl-ethoxy)-thiazol-4-yl]-allyl}-9H-purine-2,6-diamine] | – | < 50%
16 | C=C(C=Cc1nc(OCCN2CCOCC2)sc1C)Nc1nc(NC(C)(C)C)c2nc(C3CC3)[nH]c2n1 [Example 39, N*6*-tert-Butyl-8-cyclopropyl-N*2*-{1-methylene-3-[5-methyl-2-(2-morpholin-4-yl-ethoxy)-thiazol-4-yl]-allyl}-9H-purine-2,6-diamine] | – | 65 to 80%

— patent publication US20070249639A1, “Use of 9H-Purine-2,6-Diamine Derivatives in the Treatment of Proliferative Diseases and Novel 9H-Purine-2,6-Diamine Derivatives” (priority 2004, published 2007)
